# From patent publication US20260294863A1, “METHOD OF TREATING FIBROTIC-RELATED CONDITION” (YISSUM RESEARCH DEVELOPMENT COMPANY OF THE HEBREW …, priority 2023, published 2026)
# Entries after “also recorded” stand apart in the source; their conditions may differ.
# Tests used:
# [1] = system: TNFα; experiment: Secretion of TNFα from BzATP/LPS-activated microglia (ELISA); assay type: cell-based, Balb/C mice
# Protocol: (§1) Experiments were performed on primary microglial cells isolated from brains of neonatal Balb/C mice as previously described (Reichert and Rotshenker, 2003). The brains were stripped of their meninges and enzymatically dissociated. Cells were plated on Poly-L-lysine coated flasks for one week, re-plated for 1- to 2-hr on bacteriological plates and non-adherent cells were washed away. Microglia were propagated by incubation in 20% of medium, conditioned by the L-cell line that produces mouse-CSF. They were identified by morphology and positive immune-reactivity to P2y12, F4/80, complement receptor-3 and Galectin-3/MAC-2 (Reichert and Rotshenker 2003; Gitik et al. 2011).
# Cytokines were measured as previously described (Shamash et al. 2002) using ELISA Max deluxe set (Biolegend, CA, USA) for secreted TNFα and IL-6 proteins and ELISA DuoSet (R&D systems, UK) for secreted and cell associated IL-1β, according to manufacturer's instructions.
# The effect of ladostigil at concentrations of 1×10^−13 M to 1×10^−9 M on the secretion of cytokine proteins was assessed by adding it to microglia for 2 hr before LPS (0.75 μg/ml) and BzATP (400 μM). Other microglia were treated similarly with the steroid, budesonide as a reference standard at concentrations of 1× 10^−13 to 1× 10^−11 M. Measurements of cytokine secretion were performed 8 hrs after addition of LPS and BzATP. Since the levels of secreted IL-1β were still low, samples were concentrated 2- to 4-fold by an Amicon ultra-centrifugal filter device (Merck-Millipore, Ireland). ELISA was used to quantify the levels of cytokine proteins. Protein content in the microglia lysate was measured by Bradford and levels of cytokines were calculated and presented as pg/μg of microglial protein.
# [2] = system: cells (oxidative stress induced by Sin 1); details: cited from earlier work
# [3] = system: skin sclerosis; experiment: Dermal and hypodermal thickness in bleomycin-induced skin sclerosis; assay type: in vivo, C57BL/6 mice; details: ladostigil 10 mg/kg/day + bleomycin; p<0.05
# Protocol: (§2) Male C57BL/6 mice aged 8 weeks were housed under pathogen-free conditions at a controlled temperature of 22-24° C., humidity and alternating 12-h light/dark cycles and provided with food and water ad libitum. Skin sclerosis was induced as described by Ravanetti et al, (2020). A small incision was made in the skin at the back caudal to the scapulae and subcutaneous pocket was created into which an Alzet micro-osmotic pump was implanted, and the incision closed with two stiches and a surgical clip. The pumps contained bleomycin, (delivered at the rate of 60 U/kg body weight) or saline (control) and were removed 10 days after implantation. The mice were monitored daily until they recovered completely and weighed twice weekly from the beginning of the experiment.
# (§3) Ladostigil (10 mg/kg/day) was administered in the drinking fluid to 10 mice, housed 2/cage, from 3 days before bleomycin pump installation until the end of the experiment. The fluid intake of the mice was measured daily. The dose of ladostigil was adjusted accordingly. Bleomycin alone, (10 mice) and saline controls (6 mice) received regular drinking fluid.
# Skin was harvested on the gluteal region to avoid dermal fibrosis artifact due to proximity to the site of implant. For histological assessment, the samples were dehydrated in a graded ethanol series, clarified in xylene, and paraffin embedded. They were mounted on slides and paraffin was removed. Sections of 5 μm thickness were cut with a rotary microtome and stained with hematoxylin and eosin (H&E)
# [4] = Body weight in bleomycin-induced lung fibrosis; assay type: in vivo, C57BL/6JOlaHsd mice; details: bleomycin lung fibrosis
# Protocol: The animal model of bleomycin-induced lung fibrosis is widely used to characterize the potential inhibitory effect of newly developed drugs (Distler et al. 2019). Experiments were performed in C57BL/6JOlaHsd male and female mice aged 12-13 weeks. Male mice weighed 23-27.3 g and female mice, 19.4-21.1 g. They were housed under pathogen-free conditions, up to 6 per cage, in IVC cages under a controlled temperature of 22-24° C., humidity and alternating 12-h light/dark cycles and provided with food and water ad libitum. In order to minimize the stress of daily injection, ladostigil (5 mg/Kg/day) was administered by micro-osmotic pumps, implanted subcutaneously under ketamine/xylazine anesthesia, 5 days before administration of bleomycin, and delivered for 3 weeks to mice of each sex. Saline (2-3/sex) and bleomycin controls were anesthetized as described above. Bleomycin solution (0.25 mg/kg in 50 μl) was instilled into the lumen of the trachea as shown in a video by Ehrentraut et al. (2019). […] Mice were weighed daily and sacrificed on day 21. Bronchial fluid was collected as described in Ehrentraut et al. (2019). TNFα and IL-6 in the bronchial fluid lavage was measured by ELISA as described in the preceding section.
# Experiments were performed in C57BL/6JOlaHsd male mice aged 12-13 weeks as described for ladostigil. AN1284 (2.5 mg/kg/day) was administered by micro-osmotic pumps, implanted subcutaneously under ketamine/xylazine anesthesia, 5 days before administration of bleomycin and delivered for 3 weeks. Mice were weighed daily, sacrificed on day 21 and bronchial fluid was collected. Fibrosis was measured by staining with Sirius red as described for ladostigil. TNFα and IL-6 in the bronchial fluid lavage was measured by ELISA as described for ladostigil.
# [5] = system: TNFAIP3; experiment: Levels of TNFAIP3 protein in microglial cytoplasm; assay type: cell-based, Balb/C mice
# Protocol: as §1
# The addition of BzATP/LPS to microglia increased cytoplasmic levels of TNFαIP3 protein and nuclear ERGR1 protein.
# [6] = system: TNFα; experiment: TNFα in bronchial fluid, bleomycin-induced lung fibrosis (ELISA); assay type: in vivo, C57BL/6JOlaHsd mice; details: ladostigil, bleomycin-induced lung fibrosis
# Protocol: The animal model of bleomycin-induced lung fibrosis is widely used to characterize the potential inhibitory effect of newly developed drugs (Distler et al. 2019). Experiments were performed in C57BL/6JOlaHsd male and female mice aged 12-13 weeks. Male mice weighed 23-27.3 g and female mice, 19.4-21.1 g. They were housed under pathogen-free conditions, up to 6 per cage, in IVC cages under a controlled temperature of 22-24° C., humidity and alternating 12-h light/dark cycles and provided with food and water ad libitum. In order to minimize the stress of daily injection, ladostigil (5 mg/Kg/day) was administered by micro-osmotic pumps, implanted subcutaneously under ketamine/xylazine anesthesia, 5 days before administration of bleomycin, and delivered for 3 weeks to mice of each sex. Saline (2-3/sex) and bleomycin controls were anesthetized as described above. Bleomycin solution (0.25 mg/kg in 50 μl) was instilled into the lumen of the trachea as shown in a video by Ehrentraut et al. (2019). […] TNFα and IL-6 in the bronchial fluid lavage was measured by ELISA as described in the preceding section.
# Experiments were performed in C57BL/6JOlaHsd male mice aged 12-13 weeks as described for ladostigil. […] Fibrosis was measured by staining with Sirius red as described for ladostigil. TNFα and IL-6 in the bronchial fluid lavage was measured by ELISA as described for ladostigil.
# [7] = system: TGFβ; experiment: TGFβ-containing cells in skin, bleomycin-induced skin sclerosis; assay type: in vivo, C57BL/6 mice; details: ladostigil 10 mg/kg/day + bleomycin; p<0.05
# Protocol: as §2, §3
# [8] = Body weight in bleomycin-induced skin sclerosis; assay type: in vivo, C57BL/6 mice; details: 10 mg/kg/day in drinking fluid
# Protocol: as §2, §3
smiles,measurement,setting,value
"C#CCN[C@@H]1CCc2ccc(OC(=O)N(C)CC)cc21 [Ladostigil, 6-(N-ethyl, N-methylcarbamyloxy)-N propargyl-1 (R)-aminoindan hemitartrate]",minimal effective concentration,"[1]; Mus musculus, microglia, BzATP/LPS, medium containing BSA, 8 hrs, read-out: lowest concentration that significantly decreased TNFα secretion",1e-07 µM
same,reduction of TNFα release,"[1]; all concentrations tested, added 2 hrs before BzATP and LPS, 0.1% BSA, p<0.01",reduced the 3 cytokines significantly
same,"concentration preventing oxidative stress, fold lower than those inhibiting AChE or MAO",[2],20 -fold
same,oxidative stress in cells / fall in mitochondrial potential,[2]; induced by Sin 1,prevented oxidative stress in cells
same,dermal thickness,[3],significant reduction of dermal thickness
same,hypodermal thickness,[3],increase of hypodermal thickness
same,body weight loss,"[4]; females, 5 and 10 mg/kg",significantly reduced weight loss
same,body weight loss,"[4]; males, only at 10 mg/kg",significantly reduced weight loss
same,Mean conc. ± SEM of TNFAIP3 in microglial cytoplasm,"[5]; BzATP/LPS, ladostigil 1×10^−10 M, Medium 19.8 ± 0.6",28.8 ± 0.9
same,change in cytoplasmic TNFαIP3 protein,"[5]; microglia, ladostigil 1×10^−10 M on top of BzATP/LPS",further increase
same,TNFα in bronchial fluid,[6],generally not affected; also recorded: did not reduce
same,number of TGFβ-containing cells in the skin,[7],significantly reduced the number of TGFβ-containing cells
same,weight gain compared with bleomycin,"[8]; days 18, 21, 24 and 27",greater than in those on bleomycin
same,increase in body weight,"[8]; days 24-27, skin sclerosis",15%
